Reference: PubChem BioAssay AID330 (DTP/NCI, 2004)
“And” between values parts separate entries of the source, which are not always exact repeats. Equal entries are not always repeated. Inconclusive results and toxic doses are left out.

Tested on: P388 leukemia ip, CD2F1 mice, survival T/C
Experiment: NCI In Vivo Anticancer Drug Screen. Data for tumor model P388 Leukemia (intraperitoneal) in CD2F1 (CDF1) mice
Settings: endpoint: median survival time, higher = longer survival
Summary of the method: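 Mice carrying the transplanted tumor received test compound or vehicle. Survival was recorded in each group, and the value is the treated-group measurement divided by that of the vehicle-treated control group.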

[1] = dose: 50.0 mg/kg/injection, schedule: Q01DX005 (ip), vehicle: Klucel (hydroxypropylcellulose) (HPC)
[2] = dose: 100.0 mg/kg/injection, schedule: Q01DX005 (ip), vehicle: Klucel (hydroxypropylcellulose) (HPC)
[3] = dose: 200.0 mg/kg/injection, schedule: Q01DX005 (ip), vehicle: Klucel (hydroxypropylcellulose) (HPC)

With O=C(O)CCCc1ccc(N(CCCl)CCCl)cc1 the T/C (dose: 1.0 mg/kg/injection, schedule: Q01DX005 (ip), vehicle: saline with Tween-80) was 106 % of control, the T/C (dose: 1.0 mg/kg/injection, schedule: Q03HX024 (ip), vehicle: saline) was 109 % of control and the T/C (dose: 1.25 mg/kg/injection, schedule: Q01DX005 (ip), vehicle: saline with Tween-80) was 113 % of control and 119 % of control and 121 % of control. The T/C (dose: 1.3 mg/kg/injection, schedule: Q01DX009 (ip), vehicle: saline + alcohol) was 117 % of control, the T/C (dose: 2.0 mg/kg/injection, schedule: Q01DX005 (ip), vehicle: saline with Tween-80) was 113 % of control and the T/C (dose: 2.0 mg/kg/injection, schedule: Q03HX016 (ip), vehicle: saline) was 123 % of control. The T/C (dose: 2.0 mg/kg/injection, schedule: Q03HX024 (ip), vehicle: saline) was 163 % of control, the T/C (dose: 2.0 mg/kg/injection, schedule: Q04DX003 (ip), vehicle: Klucel (hydroxypropylcellulose) (HPC)) was 110 % of control and the T/C (dose: 2.2 mg/kg/injection, schedule: Q01DX009 (ip), vehicle: saline + alcohol) was 120 % of control. For the same compound, the T/C (dose: 2.59 mg/kg/injection, schedule: Q04DX002 (ip), vehicle: saline with Tween-80) was 114 % of control, the T/C (dose: 3.24 mg/kg/injection, schedule: Q01DX009 (ip), vehicle: Klucel (hydroxypropylcellulose) (HPC)) was 160 % of control and the T/C (dose: 3.6 mg/kg/injection, schedule: Q01DX009 (ip), vehicle: saline + alcohol) was 115 % of control. For the same compound, the T/C (dose: 3.75 mg/kg/injection, schedule: Q01DX009 (ip), vehicle: Klucel (hydroxypropylcellulose) (HPC)) was 118 % of control, the T/C (dose: 4.0 mg/kg/injection, schedule: Q01DX009 (ip), vehicle: saline) was 120 % of control and the T/C (dose: 4.0 mg/kg/injection, schedule: Q01DX009 (sc), vehicle: saline) was 118 % of control. The T/C (dose: 4.0 mg/kg/injection, schedule: Q03HX008 (ip), vehicle: saline) was 150 % of control, the T/C (dose: 4.0 mg/kg/injection, schedule: Q03HX016 (ip), vehicle: saline) was 204 % of control and the T/C (dose: 4.0 mg/kg/injection, schedule: Q04DX003 (ip), vehicle: Klucel (hydroxypropylcellulose) (HPC)) was 111 % of control. For the same compound, the T/C (dose: 4.32 mg/kg/injection, schedule: Q04DX002 (ip), vehicle: saline with Tween-80) was 119 % of control, the T/C (dose: 4.5 mg/kg/injection, schedule: Q01DX009 (ip), vehicle: saline + alcohol) was 153 % of control and the T/C (dose: 5.0 mg/kg/injection, schedule: Q01DX009 (ip), vehicle: saline + alcohol) was 154 % of control. For the same compound, the T/C (dose: 5.4 mg/kg/injection, schedule: Q01DX009 (ip), vehicle: Klucel (hydroxypropylcellulose) (HPC)) was 180 % of control, the T/C (dose: 6.7 mg/kg/injection, schedule: Q01DX009 (ip), vehicle: saline + alcohol) was 180 % of control and the T/C (dose: 7.5 mg/kg/injection, schedule: Q01DX009 (ip), vehicle: Klucel (hydroxypropylcellulose) (HPC)) was 122 % of control. The T/C (dose: 8.0 mg/kg/injection, schedule: Q01DX005 (ip), vehicle: saline with Tween-80) was 186 % of control, the T/C (dose: 8.0 mg/kg/injection, schedule: Q01DX009 (ip), vehicle: saline) was 170 % of control and the T/C (dose: 8.0 mg/kg/injection, schedule: Q01DX009 (sc), vehicle: saline) was 118 % of control. The T/C (dose: 8.0 mg/kg/injection, schedule: Q03HX016 (ip), vehicle: saline) was 200 % of control, the T/C (dose: 8.0 mg/kg/injection, schedule: Q03HX024 (ip), vehicle: saline) was 90 % of control and the T/C (dose: 8.0 mg/kg/injection, schedule: Q04DX003 (ip), vehicle: saline) was 113 % of control. For the same compound, the T/C (dose: 8.0 mg/kg/injection, schedule: Q04DX003 (ip), vehicle: water) was 113 % of control, the T/C (dose: 9.0 mg/kg/injection, schedule: Q01DX009 (ip), vehicle: Klucel (hydroxypropylcellulose) (HPC)) was 152 % of control and the T/C (dose: 10.0 mg/kg/injection, schedule: Q01DX009 (ip), vehicle: saline + alcohol) was 166 % of control and 172 % of control and 183 % of control. For the same compound, the T/C (dose: 10.0 mg/kg/injection, schedule: Q01DX009 (ip), vehicle: saline with Tween-80) was 160 % of control, the T/C (dose: 15.0 mg/kg/injection, schedule: Q01DX009 (ip), vehicle: Klucel (hydroxypropylcellulose) (HPC)) was 115 % of control and the T/C (dose: 15.0 mg/kg/injection, schedule: Q01DX009 (ip), vehicle: saline with Tween-80) was 173 % of control. The T/C (dose: 16.0 mg/kg/injection, schedule: Q01DX001 (ip), vehicle: saline) was 113 % of control, the T/C (dose: 16.0 mg/kg/injection, schedule: Q01DX001 (sc), vehicle: saline) was 104 % of control and the T/C (dose: 16.0 mg/kg/injection, schedule: Q01DX005 (ip), vehicle: saline with Tween-80) was 176 % of control. For the same compound, the T/C (dose: 16.0 mg/kg/injection, schedule: Q01DX009 (sc), vehicle: saline) was 122 % of control, the T/C (dose: 16.0 mg/kg/injection, schedule: Q03HX008 (ip), vehicle: saline) was 186 % of control and the T/C (dose: 16.0 mg/kg/injection, schedule: Q03HX016 (ip), vehicle: saline) was 95 % of control. The T/C (dose: 16.0 mg/kg/injection, schedule: Q04DX003 (ip), vehicle: Klucel (hydroxypropylcellulose) (HPC)) was 169 % of control, the T/C (dose: 16.0 mg/kg/injection, schedule: Q08DX002 (ip), vehicle: saline) was 154 % of control and the T/C (dose: 16.7 mg/kg/injection, schedule: Q01DX009 (ip), vehicle: saline + alcohol) was 120 % of control. For the same compound, the T/C (dose: 20.0 mg/kg/injection, schedule: Q01DX009 (ip), vehicle: saline with Tween-80) was 187 % of control, the T/C (dose: 20.0 mg/kg/injection, schedule: Q04DX002 (ip), vehicle: saline with Tween-80) was 163 % of control and the T/C (dose: 27.8 mg/kg/injection, schedule: Q01DX009 (ip), vehicle: saline + alcohol) was 59 % of control. For the same compound, the T/C (dose: 32.0 mg/kg/injection, schedule: Q01DX001 (sc), vehicle: saline) was 109 % of control, the T/C (dose: 32.0 mg/kg/injection, schedule: Q04DX003 (ip), vehicle: Klucel (hydroxypropylcellulose) (HPC)) was 100 % of control and the T/C (dose: 32.0 mg/kg/injection, schedule: Q04DX003 (ip), vehicle: saline) was 190 % of control. The T/C (dose: 32.0 mg/kg/injection, schedule: Q04DX003 (ip), vehicle: water) was 154 % of control and 212 % of control, the T/C (dose: 32.0 mg/kg/injection, schedule: Q08DX002 (ip), vehicle: saline) was 190 % of control and the T/C (dose: 64.0 mg/kg/injection, schedule: Q01DX001 (sc), vehicle: saline) was 113 % of control.

With CCCCN(c1ccc(Br)cc1)c1nc(N)nc(N)c1N=O the T/C (dose: 25.0 mg/kg/injection, schedule: Q01DX005 (ip), vehicle: Klucel (hydroxypropylcellulose) (HPC)) was 103 % of control, the T/C [1] was 99 % of control and the T/C [2] was 102 % of control. The T/C [3] was 98 % of control.

In the case of Cn1c(N)c(C(=O)c2cccs2)c(=O)n(C)c1=O, the T/C (dose: 50.0 mg/kg/injection, schedule: Q01DX009 (ip), vehicle: Klucel (hydroxypropylcellulose) (HPC)) is reported as 96 % of control, the T/C (dose: 100.0 mg/kg/injection, schedule: Q01DX009 (ip), vehicle: Klucel (hydroxypropylcellulose) (HPC)) is reported as 88 % of control and the T/C (dose: 200.0 mg/kg/injection, schedule: Q01DX009 (ip), vehicle: Klucel (hydroxypropylcellulose) (HPC)) is reported as 96 % of control.

In the case of COc1cc(/C=C2/Cc3ccccc3C2=O)ccc1O, the T/C (dose: 60.0 mg/kg/injection, schedule: Q01DX005 (ip), vehicle: saline) is reported as 106 % of control, the T/C (dose: 120.0 mg/kg/injection, schedule: Q01DX005 (ip), vehicle: saline) is reported as 106 % of control and the T/C (dose: 240.0 mg/kg/injection, schedule: Q01DX005 (ip), vehicle: saline) is reported as 96 % of control.

In the case of Nn1cn[nH]c1=S, the T/C (dose: 25.0 mg/kg/injection, schedule: Q01DX009 (ip), vehicle: saline) is reported as 100 % of control, the T/C (dose: 50.0 mg/kg/injection, schedule: Q01DX009 (ip), vehicle: saline) is reported as 97 % of control and the T/C (dose: 100.0 mg/kg/injection, schedule: Q01DX009 (ip), vehicle: saline) is reported as 98 % of control. The T/C (dose: 200.0 mg/kg/injection, schedule: Q01DX009 (ip), vehicle: saline) was 100 % of control.

In the case of N#Cc1c(F)cccc1N(Cc1cccnc1)C(=S)Nc1ccc(Cl)c(Cl)c1, the T/C [1] is reported as 110 % of control, the T/C [2] is reported as 110 % of control and the T/C [3] is reported as 105 % of control.

For CC1(C)OC2C(CO)OC(n3c(Br)nc4c(N)ncnc43)C2O1 (stereo not drawn), the T/C (dose: 50.0 mg/kg/injection, schedule: Q01DX005 (ip), vehicle: saline with Tween-80) was 100 % of control, the T/C (dose: 100.0 mg/kg/injection, schedule: Q01DX005 (ip), vehicle: saline with Tween-80) was 103 % of control and the T/C (dose: 200.0 mg/kg/injection, schedule: Q01DX005 (ip), vehicle: saline with Tween-80) was 100 % of control.

O=C(O)CCNS(=O)(=O)c1ccc2c(c1)-c1ccccc1C2 was tested, and the T/C (dose: 25.0 mg/kg/injection, schedule: Q01DX009 (ip), vehicle: saline with Tween-80) was 92 % of control, the T/C (dose: 50.0 mg/kg/injection, schedule: Q01DX009 (ip), vehicle: saline with Tween-80) was 102 % of control and 104 % of control and 97 % of control and the T/C (dose: 100.0 mg/kg/injection, schedule: Q01DX009 (ip), vehicle: saline with Tween-80) was 101 % of control and 107 % of control and 98 % of control. The T/C (dose: 200.0 mg/kg/injection, schedule: Q01DX009 (ip), vehicle: saline with Tween-80) was 102 % of control and 124 % of control.
